Source: patent US20250368961A1, “Medium for producing a bile canaliculus and method for producing a bile canaliculus using the same” (INSTITUTE OF SCIENCE TOKYO, priority 2024, published 2025)

Experiments:
[1] = test system: hepatocytes; assay: Effectiveness of different K-Ras activating agents in bile canaliculi formation; type: cell-based, human; settings: normal culture, Day 4; agent added to medium of the instant invention without OsM
Experimental: (§1) The frozen stock of human primary-cultured hepatocytes (PHHs) was thawed using commercially available thawing medium, and cell number was counted using trypan blue. To a 96-well plate coated with collagen I, PHHs were plated at 1.0×10^5 cells/well seeding density, using the medium of the instant invention, commercial medium A, commercial medium B, and commercial medium C such that the medium volume was 75 μL/well, and cultured at 37° C. under 5% CO2 condition. Four hours, 1 day, 2 days, and 4 days after seeding, the total amount of medium was replaced using each medium such that the medium volume was 75 μL/well, and the plate was cultured until Day 7 of culture.
Two types of media were used as controls: the medium of the instant invention without OsM (a negative control), and the medium of the instant invention (a positive control), and four more types of media were prepared based on the negative control to which a K-Ras activating agent other than OsM (IL-6, LIF, CNTF or Ras-GRF) was added (six types of media in total). Each medium was used for carrying out normal culture, and on culture Day 4 the medium was removed and 4 μmol/L CDFDA solution was added at 100 μL/well. The culture was incubated in a CO2 incubator (5% CO2, 37° C.) for 10 minutes, and observed using fluorescence microscopy.

[2] = test system: hepatocytes; assay: Effect of each medium component on bile canaliculi formation (component removal); type: cell-based, human; settings: normal culture, Day 4; named component removed from the medium of the instant invention
Experimental: as §1
Eight types of media in total: the medium of the instant invention, and media prepared by removing the main six components (HGF, OsM, DEX, Frk, DMSO, S-220) from the medium of the instant invention (in some case, 2 components were removed), were prepared, and each was used for performing normal culture. Phase contrast microscopy was performed on Day 4 of culture. […] Thereafter, the culture was washed three times with HBSS (+), the medium for each condition was added at 75 μL/well, then the culture was incubated in CO2 incubator (5% CO2, 37° C.) for 10 minutes and observed by fluorescence microscopy.

Row | Substance | level of accumulation of CDFDA relative to OsM (positive control) [1] | accumulation of CDFDA in bile canaliculi (fluorescence microscopy image) [2] | boundaries between cells (phase contrast microscope image) [2]
1 | IL-6: IL-6 family cytokine, K-Ras activating agent other than OsM | comparable level of accumulation of CDFDA |  | 
2 | oncostatin M [OsM] |  | almost no accumulation of CDFDA in the bile canaliculi | boundaries between cells could hardly be observed
